Measurements from patent US4211551A, “Herbicide” (Siegfried AG, priority 1976, dated 1980).

What was measured:
[1] = test system: monocotyledonous and dicotyledonous weeds; assay: Herbicidal effectiveness against monocotyledonous and dicotyledonous weeds; assay type: in vivo; settings: pre-emergence and post-emergence treatment
mice = settings: cited from earlier work
[2] = test system: Annual meadow grass (Poa annua); assay: Further field tests, control of Graminae weeds; assay type: in vivo
Excerpt: (§1) The composition prepared according to example 6 was used in field tests and compared with a composition of the type set forth in example 6 with the modification that the CBPA was replaced by the same amount of a conventional herbicide, i.e. Methabenzthiazuron (BSI approved common name). A "logarithmic" spraying apparatus of the type known in herbicide evaluation was used for these tests. This apparatus comprises an elongated spraying device connected with a reservoir for the composition to be tested, and a water reservoir. Separate test areas were sprayed with this apparatus and each composition was applied as an aqueous suspension. […] The apparatus was operated such that the initial concentration of the active ingredient was equivalent to 10 kg/ha and decreased as follows:
(§2) The amount of water applied by the apparatus remained constant and was equivalent to 666 liters per hectare. The tests were made in early August of 1976. The test areas were seeded with crop plant on a substantially weed-free soil, a middle-heavy sandy clay. One test area (zero-control) was seeded but not sprayed. Four weeks thereafter, the treated areas were inspected to determine the number of individual weed plants per square meter for five significant types of weeds and to calculate the percent effect according to the formula

[3] = test system: Barnyard Grass (Echinochloa crus-galli); assay: Further field tests, control of Graminae weeds; assay type: in vivo
Excerpt: as §1, §2

[4] = test system: Common wild oat (Avena fatua); assay: Further field tests, control of Graminae weeds; assay type: in vivo
Excerpt: as §1, §2

Green beans = assay: Field test, crop compatibility (EWRC-evaluation); assay type: in vivo
Excerpt: as §1, §2
(§3) wherein AK is the number of the individual plants of the specific weed in the untreated zero-control area and AB is the corresponding number of weed plants in the treated area. The results of these tests for three different dosage amounts with the inventive CBPA (column A) and the prior art Methabenzthiazuron are summarized in Table I below. This table further includes compatibility data of three types of crop plants for the tested composition. Crop compatibility was rated according to the evaluation scale of the "European Weed Research Council (EWRC)." In this scale, numeral 1 indicates complete absence of plant damage symptoms while numeral 9 indicates complete damage. For practical purposes, the crop tolerance limit is assumed to be between numerals 4 and 5.

Corn (Zea mais) = assay: Field test, crop compatibility (EWRC-evaluation); assay type: in vivo
Excerpt: as §1, §2, §3

[5] = test system: weeds of the Graminae family; assay: Herbicidal effectiveness against Graminae weeds; assay type: in vivo; settings: such as Barnyard grass, Annual meadow-grass, Wild Oat
weed infested crop area = assay: Treatment of weed infested crop area in the two to four leave state; assay type: in vivo
[6] = test system: five significant types of weeds; assay: Field test, average weed effect over five weeds; assay type: in vivo; settings: four weeks
Excerpt: as §1, §2, §3

[7] = test system: Shepherds Purse (Capsella bursa-pastoris); assay: Field test, herbicidal % effect on weeds (logarithmic sprayer); assay type: in vivo; settings: four weeks
Excerpt: as §1, §2, §3

[8] = test system: Lambs Quarters (Chenopodium album); assay: as above; assay type: in vivo; settings: four weeks
Excerpt: as §1, §2, §3

[9] = test system: Camomile (Matricaria chamomilla); assay: as above; assay type: in vivo; settings: four weeks
Excerpt: as §1, §2, §3

[10] = test system: Chickweed (Stellaria media); assay: as above; assay type: in vivo; settings: four weeks
Excerpt: as §1, §2, §3

[11] = test system: Rough Henbit (Lamium purpureum); assay: as above; assay type: in vivo; settings: four weeks
Excerpt: as §1, §2, §3

Wild oat (Avena fatua) = assay: Green-house test, control of Wild oat (EWRC-scale); assay type: in vivo; settings: scale 1 = complete absence of plant damage, 9 = complete damage
Excerpt: as §3
Green-house tests were made to determine the activity of CBPA in the control of Wild oat (Avena fatua), a very noxious weed in many crop cultures. The test plants were seeded and cultured in pots at temperatures of 20° to 21° C. Effectivity tests were made when the plants had reached the two-leave to four-leave state, i.e. when the total plant height was about 10 to 12 cm. The amount of water applied in addition to the composition was equivalent to 1000 liters per hectare in each case. As a comparative substance (formulated in the same manner as the inventive CBPA or its salts) a recently developed standard herbicide, Diclofop-methyl, (BSI-approved common name) was used.
The effects were rated again by the EWRC-scale mentioned above and the results are given in Table II below indicating the results at varying amounts of the applied substance (in kilograms of active substance per hectare) after 7, 14 and 21 days subsequent to the treatment.

Barley = assay: Field test, crop compatibility (EWRC-evaluation); assay type: in vivo; settings: scale 1 = complete absence of plant damage symptoms, 9 = complete damage
Excerpt: as §1, §2, §3

O=C(O)COc1ccc(Cc2ccc(Cl)cc2)cc1 [CBPA, 4-(4'-chlorobenzyl)-phenoxy acetic acid]
Herbicidal effectiveness against monocotyledonous and dicotyledonous weeds [1]: remarkable degree of effectiveness
Herbicidal effectiveness against monocotyledonous and dicotyledonous weeds ([1]; listed as 4-(4'-chlorobenzyl)-phenoxy acetic acid): surprisingly high degree of herbicidal effectiveness
LD50 (acute oral toxicity) (mice): 2700 mg per kilogram of body weight
Effectiveness for control of Graminae weeds [2]: remarkable effectiveness
Effectiveness for control of Graminae weeds [3]: remarkable effectiveness
Effectiveness for control of Graminae weeds [4]: remarkable effectiveness
Crop compatibility (EWRC-evaluation) (Green beans; in vivo): 1
Crop compatibility (EWRC-evaluation) (Corn (Zea mais); in vivo): 1
Effectiveness when controlling weeds of the Graminae family [5]: particularly beneficial and high degree of effectiveness
Contact effect (weed infested crop area; two to four leave state, in addition to residual effectiveness): remarkable contact effect
Result of treatment in two to four leave state (weed infested crop area; weeds and crops in two to four leave state): positive results
Average weed effect (%) ([6]; 2.65 kg/ha a.i.): 81.8%
Average weed effect (%) ([6]; 4.3 kg/ha a.i.): 95.4%
Average weed effect (%) ([6]; 6.7 kg/ha a.i.): 99.4%
Herbicidal % effect on specific weeds ([7]; 2.65 kg/ha a.i.): 84%
Herbicidal % effect on specific weeds ([7]; 4.3 kg/ha a.i.): 96%
Herbicidal % effect on specific weeds ([7]; 6.7 kg/ha a.i.): 100%
Herbicidal % effect on specific weeds ([8]; 2.65 kg/ha a.i.): 83%
Herbicidal % effect on specific weeds ([8]; 4.3 kg/ha a.i.): 100%
Herbicidal % effect on specific weeds ([8]; 6.7 kg/ha a.i.): 100%
Herbicidal % effect on specific weeds ([9]; 2.65 kg/ha a.i.): 70%
Herbicidal % effect on specific weeds ([9]; 4.3 kg/ha a.i.): 90%
Herbicidal % effect on specific weeds ([9]; 6.7 kg/ha a.i.): 100%
Herbicidal % effect on specific weeds ([10]; 2.65 kg/ha a.i.): 83%
Herbicidal % effect on specific weeds ([10]; 4.3 kg/ha a.i.): 100%
Herbicidal % effect on specific weeds ([10]; 6.7 kg/ha a.i.): 100%
Herbicidal % effect on specific weeds ([11]; 2.65 kg/ha a.i.): 89%
Herbicidal % effect on specific weeds ([11]; 4.3 kg/ha a.i.): 91%
Herbicidal % effect on specific weeds ([11]; 6.7 kg/ha a.i.): 97%
Effect on Wild oat rated by EWRC-scale (Wild oat (Avena fatua); 1 kg/ha, 7 days): 3
Effect on Wild oat rated by EWRC-scale (Wild oat (Avena fatua); 1 kg/ha, 14 days): 4
Effect on Wild oat rated by EWRC-scale (Wild oat (Avena fatua); 1 kg/ha, 21 days): 4
Effect on Wild oat rated by EWRC-scale (Wild oat (Avena fatua); 2 kg/ha, 7 days): 4
Effect on Wild oat rated by EWRC-scale (Wild oat (Avena fatua); 2 kg/ha, 14 days): 6
Effect on Wild oat rated by EWRC-scale (Wild oat (Avena fatua); 2 kg/ha, 21 days): 8
Effect on Wild oat rated by EWRC-scale (Wild oat (Avena fatua); 4 kg/ha, 7 days): 5
Effect on Wild oat rated by EWRC-scale (Wild oat (Avena fatua); 4 kg/ha, 14 days): 9
Effect on Wild oat rated by EWRC-scale (Wild oat (Avena fatua); 4 kg/ha, 21 days): 9
Effect on Wild oat rated by EWRC-scale (Wild oat (Avena fatua); 8 kg/ha, 7 days): 5
Effect on Wild oat rated by EWRC-scale (Wild oat (Avena fatua); 8 kg/ha, 14 days): 9
Effect on Wild oat rated by EWRC-scale (Wild oat (Avena fatua); 8 kg/ha, 21 days): 9

COC(=O)C(C)Oc1ccc(Oc2ccc(Cl)cc2Cl)cc1 (centres unmarked) [Diclofop-methyl, reference compound]
Effect on Wild oat rated by EWRC-scale (Wild oat (Avena fatua); 1 kg/ha, 7 days): 2
Effect on Wild oat rated by EWRC-scale (Wild oat (Avena fatua); 1 kg/ha, 14 days): 4
Effect on Wild oat rated by EWRC-scale (Wild oat (Avena fatua); 1 kg/ha, 21 days): 4
Effect on Wild oat rated by EWRC-scale (Wild oat (Avena fatua); 2 kg/ha, 7 days): 3
Effect on Wild oat rated by EWRC-scale (Wild oat (Avena fatua); 2 kg/ha, 14 days): 5
Effect on Wild oat rated by EWRC-scale (Wild oat (Avena fatua); 2 kg/ha, 21 days): 5
Effect on Wild oat rated by EWRC-scale (Wild oat (Avena fatua); 4 kg/ha, 7 days): 5
Effect on Wild oat rated by EWRC-scale (Wild oat (Avena fatua); 4 kg/ha, 14 days): 7
Effect on Wild oat rated by EWRC-scale (Wild oat (Avena fatua); 4 kg/ha, 21 days): 8
Effect on Wild oat rated by EWRC-scale (Wild oat (Avena fatua); 8 kg/ha, 7 days): 5
Effect on Wild oat rated by EWRC-scale (Wild oat (Avena fatua); 8 kg/ha, 14 days): 6
Effect on Wild oat rated by EWRC-scale (Wild oat (Avena fatua); 8 kg/ha, 21 days): 8

CNC(=O)N(C)c1nc2ccccc2s1 [Methabenzthiazuron, reference compound]
Crop compatibility (EWRC-evaluation) (Green beans; Green beans, 2.65 kg/ha a.i., scale 1 = complete absence of plant damage symptoms, 9 = complete damage, tolerance limit between 4 and 5): 1
Crop compatibility (EWRC-evaluation) (Green beans; Green beans, 4.3 kg/ha a.i., scale 1 = complete absence of plant damage symptoms, 9 = complete damage): 1
Crop compatibility (EWRC-evaluation) (Green beans; Green beans, 6.7 kg/ha a.i., scale 1 = complete absence of plant damage symptoms, 9 = complete damage): 1
Crop compatibility (EWRC-evaluation) (Barley; 2.65 kg/ha a.i., tolerance limit between 4 and 5): 1
Crop compatibility (EWRC-evaluation) (Barley; 4.3 kg/ha a.i.): 1
Crop compatibility (EWRC-evaluation) (Barley; 6.7 kg/ha a.i., tolerance limit between 4 and 5): 5
Crop compatibility (EWRC-evaluation) (Corn (Zea mais); Corn, 2.65 kg/ha a.i., scale 1 = complete absence of plant damage symptoms, 9 = complete damage, tolerance limit between 4 and 5): 1
Crop compatibility (EWRC-evaluation) (Corn (Zea mais); Corn, 4.3 kg/ha a.i., scale 1 = complete absence of plant damage symptoms, 9 = complete damage): 1
Crop compatibility (EWRC-evaluation) (Corn (Zea mais); Corn, 6.7 kg/ha a.i., scale 1 = complete absence of plant damage symptoms, 9 = complete damage): 1
Average weed effect (%) ([6]; 2.65 kg/ha a.i.): 74%
Average weed effect (%) ([6]; 4.3 kg/ha a.i.): 91.5%
Average weed effect (%) ([6]; 6.7 kg/ha a.i.): 95.6%
Herbicidal % effect on specific weeds ([7]; 2.65 kg/ha a.i.): 95%
Herbicidal % effect on specific weeds ([7]; 4.3 kg/ha a.i.): 99%
Herbicidal % effect on specific weeds ([7]; 6.7 kg/ha a.i.): 100%
Herbicidal % effect on specific weeds ([8]; 2.65 kg/ha a.i.): 87%
Herbicidal % effect on specific weeds ([8]; 4.3 kg/ha a.i.): 94%
Herbicidal % effect on specific weeds ([8]; 6.7 kg/ha a.i.): 98%
Herbicidal % effect on specific weeds ([9]; 2.65 kg/ha a.i.): 88%
Herbicidal % effect on specific weeds ([9]; 4.3 kg/ha a.i.): 100%
Herbicidal % effect on specific weeds ([9]; 6.7 kg/ha a.i.): 100%
Herbicidal % effect on specific weeds ([10]; 2.65 kg/ha a.i.): 100%
Herbicidal % effect on specific weeds ([10]; 4.3 kg/ha a.i.): 100%
Herbicidal % effect on specific weeds ([10]; 6.7 kg/ha a.i.): 100%
Herbicidal % effect on specific weeds ([11]; 2.65 kg/ha a.i.): 0%
Herbicidal % effect on specific weeds ([11]; 4.3 kg/ha a.i.): 73%
Herbicidal % effect on specific weeds ([11]; 6.7 kg/ha a.i.): 80%
